In patent US20250215029A1 (Recludix Pharma, Inc., priority 2022, published 2025):
Like-named read-outs stand apart in the source and are kept apart here.

Experiments:
[1] = target: T1, pY705-STAT3 in PBMC (Homo sapiens, UniProt P40763); assay: MSD-pSTAT-PBMC Assay (pSTAT3, IL-6 stimulated); type: cell-based; conditions: compound 3 hrs, then 10 ng/mL IL-6 for 10 min
T1 construct: Cryopreserved Peripheral Blood Mononuclear Cells (PBMC) are from AllCells; host or cells: cryopreserved PBMC
Outline: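 Cells are preincubated with compound for 3 hrs, then stimulated for 10 min, IL-4 at 1 ng/mL driving STAT6 phosphorylation and IL-6 at 10 ng/mL driving STAT3. Phospho-STAT in lysates is quantified by MSD immunoassay, and IC50 is fitted after subtracting unstimulated wells.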

[2] = target: T2, pY641-STAT6 in PBMC (Homo sapiens, UniProt P42226); assay: MSD-pSTAT-PBMC Assay (pSTAT6, IL-4 stimulated); type: cell-based; conditions: compound 3 hrs, then 1 ng/mL IL-4 for 10 min
T2 construct: Cryopreserved Peripheral Blood Mononuclear Cells (PBMC) are from AllCells; host or cells: cryopreserved PBMC
T2 sequence (P42226 1-847): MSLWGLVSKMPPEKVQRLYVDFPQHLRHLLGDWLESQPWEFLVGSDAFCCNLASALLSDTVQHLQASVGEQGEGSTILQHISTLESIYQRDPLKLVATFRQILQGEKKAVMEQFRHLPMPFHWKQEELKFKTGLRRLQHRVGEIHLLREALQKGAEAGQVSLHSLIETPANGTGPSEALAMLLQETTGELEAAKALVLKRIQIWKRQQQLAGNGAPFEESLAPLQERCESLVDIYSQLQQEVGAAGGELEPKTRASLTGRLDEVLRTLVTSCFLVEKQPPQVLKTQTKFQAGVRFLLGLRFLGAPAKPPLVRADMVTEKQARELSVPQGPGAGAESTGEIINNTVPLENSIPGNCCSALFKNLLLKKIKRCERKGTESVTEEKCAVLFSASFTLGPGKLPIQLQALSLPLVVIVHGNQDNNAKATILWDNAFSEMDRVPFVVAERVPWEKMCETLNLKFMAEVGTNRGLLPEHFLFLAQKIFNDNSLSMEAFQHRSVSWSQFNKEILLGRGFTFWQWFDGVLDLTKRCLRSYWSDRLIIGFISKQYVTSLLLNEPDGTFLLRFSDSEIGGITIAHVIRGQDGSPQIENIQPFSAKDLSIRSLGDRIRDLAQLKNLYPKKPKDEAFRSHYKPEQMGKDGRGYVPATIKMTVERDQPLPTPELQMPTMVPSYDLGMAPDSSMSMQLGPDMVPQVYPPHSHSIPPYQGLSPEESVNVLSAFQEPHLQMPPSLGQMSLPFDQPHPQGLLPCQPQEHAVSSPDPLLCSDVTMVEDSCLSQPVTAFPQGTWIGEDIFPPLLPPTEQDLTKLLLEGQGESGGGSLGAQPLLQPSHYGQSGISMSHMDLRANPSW
Outline: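 PBMC (human, cryopreserved, overnight recovery) + cpd 3 hrs → IL-6 10 ng/mL (STAT3) or IL-4 1 ng/mL (STAT6) ×10 min → lysis with protease/phosphatase inhibitors → MSD capture/phospho detection. IC50, variable slope, DMSO-normalized.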

[3] = PBMC, Table 115, read-out: STAT3
[4] = PBMC, Table 115, read-out: STAT6
[5] = PBMC, Table 1114, read-out: pSTAT3
[6] = PBMC, Table 1114, read-out: pSTAT6

T1 sequence (P40763 whole entry): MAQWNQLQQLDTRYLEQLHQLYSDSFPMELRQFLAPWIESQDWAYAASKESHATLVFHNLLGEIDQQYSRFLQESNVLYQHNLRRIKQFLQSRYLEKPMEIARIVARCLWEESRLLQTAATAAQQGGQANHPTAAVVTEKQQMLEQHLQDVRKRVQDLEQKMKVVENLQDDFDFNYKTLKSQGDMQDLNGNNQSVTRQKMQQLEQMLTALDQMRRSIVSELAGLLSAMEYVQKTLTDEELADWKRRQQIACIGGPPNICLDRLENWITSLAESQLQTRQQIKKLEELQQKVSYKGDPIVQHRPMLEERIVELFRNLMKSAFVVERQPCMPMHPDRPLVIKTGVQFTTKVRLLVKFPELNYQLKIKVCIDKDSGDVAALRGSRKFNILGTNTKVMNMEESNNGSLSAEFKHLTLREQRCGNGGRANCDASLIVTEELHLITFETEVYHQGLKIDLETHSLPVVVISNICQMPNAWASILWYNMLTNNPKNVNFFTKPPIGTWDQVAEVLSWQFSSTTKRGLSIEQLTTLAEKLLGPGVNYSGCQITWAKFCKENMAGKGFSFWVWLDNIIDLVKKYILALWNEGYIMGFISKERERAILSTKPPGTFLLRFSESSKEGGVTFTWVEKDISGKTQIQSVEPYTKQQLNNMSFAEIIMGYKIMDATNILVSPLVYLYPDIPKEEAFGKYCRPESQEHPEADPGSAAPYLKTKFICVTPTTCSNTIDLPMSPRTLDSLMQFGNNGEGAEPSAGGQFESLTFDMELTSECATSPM

IC50 [1, 3] [nM] | IC50 [1, 5] [nM] | IC50 [2, 6] [nM] | SMILES | also measured
> 3000 | – | – | CC(C)CC(=O)SCCOP(=O)(OCOC(=O)OC1COC1)C(F)(F)c1ccc2sc(C(=O)N[C@H]3CCCC[C@H]4CC[C@@H](C(=O)N5C[C@H](c6cc[nH]c(=O)c6)[C@@H](C#N)C5)N4C3=O)cc2c1 (single isomer, unassigned) [Compound 1093] | IC50 [2, 4]: 100 to 1000 nM
1000 to 3000 | – | – | CC(C)CC(=O)SCCOP(=O)(OCOC(=O)O[C@@H]1CCOC1)C(F)(F)c1ccc2sc(C(=O)N[C@H]3CCCC[C@H]4CC[C@@H](C(=O)N5C[C@H](c6cc[nH]c(=O)c6)[C@@H](C#N)C5)N4C3=O)cc2c1 (single isomer, unassigned) [Compound 1094] | IC50 [2, 4]: 100 to 1000 nM
1000 to 3000 | – | – | CC(C)CC(=O)SCCOP(=O)(OCOC(=O)O[C@H]1CCOC1)C(F)(F)c1ccc2sc(C(=O)N[C@H]3CCCC[C@H]4CC[C@@H](C(=O)N5C[C@H](c6cc[nH]c(=O)c6)[C@@H](C#N)C5)N4C3=O)cc2c1 (single isomer, unassigned) [Compound 1097] | IC50 [2, 4]: 100 to 1000 nM
100 to 1000 | – | – | CC(C)CC(=O)SCCOP(=O)(OCOC(=O)OC(C)C)C(F)(F)c1ccc2ccc(C(=O)N[C@H]3CCCC[C@H]4CC[C@@H](C(=O)N5C[C@H](c6cc[nH]c(=O)c6)[C@@H](C#N)C5)N4C3=O)cc2c1 (single isomer, unassigned) [Compound 1100] | IC50 [2, 4]: < 100 nM
– | < 100 | > 3000 | CC(C)(C)C(=O)SCCOP(=O)(OCCSC(=O)C(C)(C)C)C(F)(F)c1ccc2sc(C(=O)N[C@H]3CC4(CC[C@H]5CC[C@@H](C(=O)N6CC(c7cccnc7)C6)N5C3=O)CC4)cc2c1 [Compound 130, S,S′-((((difluoro(2-(((3′S,6′S,10a′S)-5′-oxo-3′-(3-(pyridin-3-yl)azetidine-1-carbonyl)octahydro-5′H-spiro [cyclopropane-1,8′-pyrrolo[1,2-a]azocin]-6′-yl)carbamoyl)benzo[b]thiophen-5-yl)methyl)phosphoryl)bis (oxy))bis (ethane-2,1-diyl)) bis(2,2-dimethylpropane-thioate)] | –
– | 100 to 1000 | < 100 | CCCC(=O)SCCOP(=O)(OCCSC(=O)CCC)C(F)(F)c1ccc2sc(C(=O)N[C@H]3CCCC[C@H]4CC[C@@H](C(=O)N(C)c5ccc6nnccc6c5)N4C3=O)cc2c1 [Compound 131, S,S′-(((((2-(((3S,6S,10aS)-3-(cinnolin-6-yl(methyl)carbamoyl)-5-oxodecahydro-pyrrolo[1,2-a]azocin-6-yl)carbamoyl)benzo[b]thiophen-5-yl)difluoromethyl)phosphoryl)bis (oxy))bis(ethane-2,1-diyl)) dibutanethioate] | –
– | < 100 | > 3000 | CC(C)(C)C(=O)SCCOP(=O)(OCCSC(=O)C(C)(C)C)C(F)(F)c1ccc2sc(C(=O)N[C@H]3CCC4(CC4)C[C@H]4CC[C@@H](C(=O)N5CC(c6cccnc6)C5)N4C3=O)cc2c1 [Compound 132, S,S′-((((difluoro(2-(((3′S,6′S,10a′R)-5′-oxo-3′-(3-(pyridin-3-yl)azetidine-1-carbonyl)octahydro-1′H-spiro [cyclopropane-1,9′-pyrrolo[1,2-a]azocin]-6′-yl)carbamoyl)benzo[b]thiophen-5-yl)methyl)phosphoryl)bis (oxy))bis(ethane-2,1-diyl))bis(2,2-dimethylpropane-thioate)] | –
– | – | – | CCCC(=O)SCCOP(=O)(Oc1ccccc1)C(F)(F)c1ccc2sc(C(=O)N[C@H]3CCC[C@H]4CC[C@@H](C(=O)N5CC(c6cccnc6)C5)N4C3=O)cc2c1 (stereo partly drawn) [Compound 136, S-(2-(((difluoro(2-(((3S,6S,9aS)-5-oxo-3-(3-(pyridin-3-yl)azetidine-1-carbonyl)octahydro-1H-pyrrolo[1,2-a]azepin-6-yl)carbamoyl)benzo[b]thiophen-5-yl)methyl) (phenoxy)phosphoryl)oxy)ethyl) butanethioate] | IC50 ([1]; pSTAT3, PBMC, Table 1114): < 100 nM; IC50 ([2]; pSTAT6, PBMC, Table 1114): 1000 to 3000 nM
– | – | – | CCCC(=O)SCCOP(=O)(Oc1cccc2ccccc12)C(F)(F)c1ccc2sc(C(=O)N[C@H]3CCC[C@H]4CC[C@@H](C(=O)N5CC(c6cccnc6)C5)N4C3=O)cc2c1 (stereo partly drawn) [Compound 140, S-(2-(((difluoro(2-(((3S,6S,9aS)-5-oxo-3-(3-(pyridin-3-yl)azetidine-1-carbonyl)octahydro-1H-pyrrolo[1,2-a]azepin-6-yl)carbamoyl)benzo[b]thiophen-5-yl)methyl) (naphthalen-1-yloxy)phosphoryl)oxy)ethyl) butanethioate] | IC50 ([1]; pSTAT3, PBMC, Table 1114): < 100 nM; IC50 ([2]; pSTAT6, PBMC, Table 1114): 1000 to 3000 nM
– | 100 to 1000 | 100 to 1000 | CN(C(=O)[C@@H]1CC[C@@H]2C/C=C\C[C@H](NC(=O)c3cc4cc(C(F)(F)P(=O)(OCOC(=O)C(C)(C)C)OCOC(=O)C(C)(C)C)ccc4[nH]3)C(=O)N21)c1ccccc1 [Compound 141, (((difluoro(2-(((3S,6S,10aR,Z)-3-(methyl (phenyl)carbamoyl)-5-oxo-1,2,3,5,6,7,10,10a-octahydropyrrolo [1,2-a]azocin-6-yl)carbamoyl)-1H-indol-5-yl)methyl)phosphoryl)bis (oxy))bis (methylene) bis(2,2-dimethylpropanoate)] | –
– | 100 to 1000 | < 100 | CN(C(=O)[C@@H]1CC[C@@H]2CCCC[C@H](NC(=O)c3cc4cc(C(F)(F)P(=O)(OCOC(=O)C(C)(C)C)OCOC(=O)C(C)(C)C)ccc4[nH]3)C(=O)N21)c1ccccc1 [Compound 142, (((difluoro(2-(((3S,6S,10aS)-3-(methyl(phenyl)carbamoyl)-5-oxodecahydro-pyrrolo[1,2-a]azocin-6-yl)carbamoyl)-1H-indol-5-yl)methyl)phosphoryl)bis(oxy)) bis(methylene) bis(2,2-dimethylpropanoate)] | –
– | < 100 | < 100 | CN(C)S(=O)(=O)N1CCN(C(=O)[C@@H]2CC[C@@H]3CCCC[C@H](NC(=O)c4cc5cc(C(F)(F)P(=O)(OCOC(=O)C(C)(C)C)OCOC(=O)C(C)(C)C)ccc5s4)C(=O)N32)CC1 [Compound 145, ((((2-(((3S,6S,10aS)-3-(4-(N,N-dimethylsulfamoyl)piperazine-1-carbonyl)-5-oxodecahydro-pyrrolo[1,2-a]azocin-6-yl)carbamoyl)benzo[b]thiophen-5-yl)difluoromethyl)phosphoryl)bis (oxy))bis (methylene) bis(2,2-dimethylpropanoate)] | –
– | 100 to 1000 | > 3000 | CC(C)(C)C(=O)OCOP(=O)(OCOC(=O)C(C)(C)C)C(F)(F)c1ccc2sc(C(=O)N[C@@]3(C)CCCC[C@H]4CC[C@@H](C(=O)N5CC(c6ccccn6)C5)N4C3=O)cc2c1 [Compound 150, (((difluoro(2-(((3S,6S,10aS)-6-methyl-5-oxo-3-(3-(pyridin-2-yl)azetidine-1-carbonyl)decahydropyrrolo [1,2-a]azocin-6-yl)carbamoyl)benzo[b]thiophen-5-yl)methyl)phosphoryl)bis (oxy))bis (methylene) bis(2,2-dimethyl-propanoate)] | –

SMILES | IC50 [1, 3] [nM] | IC50 [1, 5] [nM] | IC50 [2, 6] [nM] | also measured
CC(C)(CO)C(=O)SCCOP(=O)(Oc1ccccc1)C(F)(F)c1ccc2sc(C(=O)N[C@H]3CCCC[C@H]4CC[C@@H](C(=O)N5C[C@@H](C#N)[C@H](c6cc[nH]c(=O)c6)C5)N4C3=O)cc2c1 (single isomer, unassigned) [Compound 1091] | > 3000 | – | – | IC50 ([2]; STAT6, PBMC, Table 115): > 3000 nM
CCCOC(=O)[C@H](C)NP(=O)(Oc1ccccc1)C(F)c1ccc2sc(C(=O)N[C@H]3CCCC[C@H]4CC[C@@H](C(=O)N5C[C@@H](c6cccnc6)CC56CC6)N4C3=O)cc2c1 (stereo in doubt) [Compound 457, propyl (((R)-fluoro(2-(((3S,6S,10aS)-5-oxo-3-((R)-6-(pyridin-3-yl)-4-azaspiro[2.4]heptane-4-carbonyl)decahydropyrrolo[1,2-a]azocin-6-yl)carbamoyl)benzo [b]thiophen-5-yl)methyl)(phenoxy)phosphoryl)-L-alaninate] | > 3000 | – | – | IC50 ([2]; STAT6, PBMC, Table 115): < 100 nM
